Assay results from PubChem BioAssay AID2060909 (Molecular Pharmacology Branch, DTP, NCI, 2025).

Test system: 362531-283-R-J2-PDC complex spheroid viability
Assay: Anticancer human tumor 362531-283-R-J2-PDC patient-derived colon adenocarcinoma cell line growth inhibition [RAS]
Settings: for viability, T/C: stronger effect = lower value
In short: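 Tumour cells grown as complex spheroids with HUVEC endothelial cells and mesenchymal stem cells, treated with RAS pathway inhibitor combinations. Each agent spans half-log steps from near clinical Cmax, or 10 microM where Cmax is unknown.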

[1] = curve of first compound, second compound 0.000949 µM
[2] = curve of first compound, second compound 0.003 µM
[3] = curve of first compound, second compound 0.00949 µM
[4] = curve of first compound, second compound 0.03 µM
[5] = curve of first compound, second compound 0.0949 µM
[6] = curve of first compound, second compound 0.3 µM
[7] = second compound 0.000949 µM, first compound 0.00316 µM
[8] = second compound 0.000949 µM, first compound 0.01 µM
[9] = second compound 0.000949 µM, first compound 0.0316 µM
[10] = second compound 0.000949 µM, first compound 0.1 µM
[11] = second compound 0.000949 µM, first compound 0.316 µM
[12] = second compound 0.000949 µM, first compound 1 µM
[13] = second compound 0.003 µM, first compound 0.00316 µM
[14] = second compound 0.003 µM, first compound 0.01 µM
[15] = second compound 0.003 µM, first compound 0.0316 µM
[16] = second compound 0.003 µM, first compound 0.1 µM
[17] = second compound 0.003 µM, first compound 0.316 µM
[18] = second compound 0.003 µM, first compound 1 µM
[19] = second compound 0.00949 µM, first compound 0.00316 µM
[20] = second compound 0.00949 µM, first compound 0.01 µM
[21] = second compound 0.00949 µM, first compound 0.0316 µM
[22] = second compound 0.00949 µM, first compound 0.1 µM
[23] = second compound 0.00949 µM, first compound 0.316 µM
[24] = second compound 0.00949 µM, first compound 1 µM
[25] = second compound 0.03 µM, first compound 0.00316 µM
[26] = second compound 0.03 µM, first compound 0.01 µM
[27] = second compound 0.03 µM, first compound 0.0316 µM
[28] = second compound 0.03 µM, first compound 0.1 µM
[29] = second compound 0.03 µM, first compound 0.316 µM
[30] = second compound 0.03 µM, first compound 1 µM
[31] = second compound 0.0949 µM, first compound 0.00316 µM
[32] = second compound 0.0949 µM, first compound 0.01 µM
[33] = second compound 0.0949 µM, first compound 0.0316 µM
[34] = second compound 0.0949 µM, first compound 0.1 µM
[35] = second compound 0.0949 µM, first compound 0.316 µM
[36] = second compound 0.0949 µM, first compound 1 µM
[37] = second compound 0.3 µM, first compound 0.00316 µM
[38] = second compound 0.3 µM, first compound 0.01 µM
[39] = second compound 0.3 µM, first compound 0.0316 µM
[40] = second compound 0.3 µM, first compound 0.1 µM
[41] = second compound 0.3 µM, first compound 0.316 µM
[42] = second compound 0.3 µM, first compound 1 µM
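Also: spheroids exposed to the agents for 7 days before readout.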
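For viability, T/C in this document: luminescence viability as percent of DMSO vehicle control wells.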

In the case of `CC1(C)CCC(Nc2ncc(C(F)(F)F)c(-c3c[nH]c4c(P(C)(C)=O)c(C#N)ccc34)n2)CN1` (stereo not drawn) + C#Cc1c(F)ccc2cc(O)cc(-c3ncc4c(N5CC6CCC(C5)N6)nc(OCC56CCCN5CC(F)C6)nc4c3F)c12, the IC50 (curve of first compound, second compound 0.0316 µM) is reported as over 300 nM, the IC50 (curve of first compound, second compound 0.1 µM) is reported as over 300 nM and the IC50 (curve of first compound, second compound 0.316 µM) is reported as over 300 nM. For the same molecule, the IC50 (curve of first compound, second compound 1 µM) was over 300 nM, the IC50 (curve of first compound, second compound 3.16 µM) was over 300 nM and the IC50 (curve of first compound, second compound 10 µM) was over 300 nM. The viability, T/C (second compound 0.0316 µM, first compound 0.000949 µM) was 97%, the viability, T/C (second compound 0.0316 µM, first compound 0.003 µM) was 95.6% and the viability, T/C (second compound 0.0316 µM, first compound 0.00949 µM) was 98.5%. It also gave a viability, T/C (second compound 0.0316 µM, first compound 0.03 µM) of 92.3%, a viability, T/C (second compound 0.0316 µM, first compound 0.0949 µM) of 107% and a viability, T/C (second compound 0.0316 µM, first compound 0.3 µM) of 114%. For the same molecule, the viability, T/C (second compound 0.1 µM, first compound 0.000949 µM) was 107%, the viability, T/C (second compound 0.1 µM, first compound 0.003 µM) was 85.5% and the viability, T/C (second compound 0.1 µM, first compound 0.00949 µM) was 90.4%. For the same molecule, the viability, T/C (second compound 0.1 µM, first compound 0.03 µM) was 95.8%, the viability, T/C (second compound 0.1 µM, first compound 0.0949 µM) was 101% and the viability, T/C (second compound 0.1 µM, first compound 0.3 µM) was 99.5%. It also gave a viability, T/C (second compound 0.316 µM, first compound 0.000949 µM) of 95.7%, a viability, T/C (second compound 0.316 µM, first compound 0.003 µM) of 88.2% and a viability, T/C (second compound 0.316 µM, first compound 0.00949 µM) of 88.8%. For the same molecule, the viability, T/C (second compound 0.316 µM, first compound 0.03 µM) was 90.2%, the viability, T/C (second compound 0.316 µM, first compound 0.0949 µM) was 97.4% and the viability, T/C (second compound 0.316 µM, first compound 0.3 µM) was 93.8%. For the same molecule, the viability, T/C (second compound 1 µM, first compound 0.000949 µM) was 80.5%, the viability, T/C (second compound 1 µM, first compound 0.003 µM) was 89.3% and the viability, T/C (second compound 1 µM, first compound 0.00949 µM) was 83.4%. It also gave a viability, T/C (second compound 1 µM, first compound 0.03 µM) of 93.5%, a viability, T/C (second compound 1 µM, first compound 0.0949 µM) of 80.9% and a viability, T/C (second compound 1 µM, first compound 0.3 µM) of 82.9%. For the same molecule, the viability, T/C (second compound 3.16 µM, first compound 0.000949 µM) was 68.4%, the viability, T/C (second compound 3.16 µM, first compound 0.003 µM) was 65.9% and the viability, T/C (second compound 3.16 µM, first compound 0.00949 µM) was 70.9%. It also gave a viability, T/C (second compound 3.16 µM, first compound 0.03 µM) of 74%, a viability, T/C (second compound 3.16 µM, first compound 0.0949 µM) of 61.2% and a viability, T/C (second compound 3.16 µM, first compound 0.3 µM) of 71.1%. For the same molecule, the viability, T/C (second compound 10 µM, first compound 0.000949 µM) was 56.4%, the viability, T/C (second compound 10 µM, first compound 0.003 µM) was 49.7% and the viability, T/C (second compound 10 µM, first compound 0.00949 µM) was 54.8%. The viability, T/C (second compound 10 µM, first compound 0.03 µM) was 55%, the viability, T/C (second compound 10 µM, first compound 0.0949 µM) was 41.4% and the viability, T/C (second compound 10 µM, first compound 0.3 µM) was 54.3%.

`C=CC(=O)Nc1cc(Nc2nccc(-c3cn(C)c4ccccc34)n2)c(OC)cc1N(C)CCN(C)C` was tested, and the viability, T/C (compound 0.00316 µM) was 98.8% [middle of 4 runs], the viability, T/C (compound 0.01 µM) was 92.5% [middle of 4 runs] and the viability, T/C (compound 0.0316 µM) was 101% [middle of 4 runs]. For the same molecule, the viability, T/C (compound 0.1 µM) was 101% [middle of 4 runs], the viability, T/C (compound 0.316 µM) was 96.5% [middle of 4 runs] and the viability, T/C (compound 1 µM) was 85.1% [middle of 4 runs]. For the same molecule, the IC50 (curve of compound) was over 1000 nM.

For `C=CC(=O)N1CCN(c2nc(OCC3CCCN3C)nc3c(F)c(-c4nc(N)cc(C)c4C(F)(F)F)c(Cl)cc23)C(C)C1` (stereo not drawn) + CCn1c(-c2cc(N3CCN(C)CC3)cnc2C(C)OC)c2c3cc(ccc31)-c1csc(n1)CC(NC(=O)C1CC1C)C(=O)N1CCCC(N1)C(=O)OCC(C)(C)C2, the IC50 [1] was over 1000 nM, the IC50 [2] was over 1000 nM and the IC50 [3] was over 1000 nM. It also gave an IC50 [4] of over 1000 nM, an IC50 [5] of over 1000 nM and an IC50 [6] of under 3.16 nM. It also gave a viability, T/C [7] of 101%, a viability, T/C [8] of 100% and a viability, T/C [9] of 107%. For the same molecule, the viability, T/C [10] was 92.5%, the viability, T/C [11] was 94.3% and the viability, T/C [12] was 103%. The viability, T/C [13] was 107%, the viability, T/C [14] was 103% and the viability, T/C [15] was 97%. The viability, T/C [16] was 92%, the viability, T/C [17] was 104% and the viability, T/C [18] was 91.7%. It also gave a viability, T/C [19] of 93.7%, a viability, T/C [20] of 108% and a viability, T/C [21] of 104%. For the same molecule, the viability, T/C [22] was 99.1%, the viability, T/C [23] was 108% and the viability, T/C [24] was 106%. For the same molecule, the viability, T/C [25] was 87.8%, the viability, T/C [26] was 104% and the viability, T/C [27] was 86.8%. The viability, T/C [28] was 81.1%, the viability, T/C [29] was 95.7% and the viability, T/C [30] was 101%. For the same molecule, the viability, T/C [31] was 88%, the viability, T/C [32] was 87.5% and the viability, T/C [33] was 81.2%. For the same molecule, the viability, T/C [34] was 80.3%, the viability, T/C [35] was 75.5% and the viability, T/C [36] was 90.5%. The viability, T/C [37] was 43%, the viability, T/C [38] was 57% and the viability, T/C [39] was 41.2%. It also gave a viability, T/C [40] of 45.9%, a viability, T/C [41] of 45.9% and a viability, T/C [42] of 35%.

Work on `Nc1ccn(C2OC(CO)C(O)C2(F)F)c(=O)n1` (stereo not drawn) + CCn1c(-c2cccnc2C(C)OC)c2c3cc(ccc31)N1CCOC(CC(NC(=O)C(C(C)C)N(C)C(=O)C3(F)CCN(C(=O)C#CC(C)(C)N(C)C)CC3)C(=O)N3CCCC(N3)C(=O)OCC(C)(C)C2)C1 yielded an IC50 [1] of 169 nM, an IC50 [2] of 153 nM and an IC50 [3] of 177 nM. For the same molecule, the IC50 [4] was 189 nM, the IC50 [5] was 132 nM and the IC50 [6] was 163 nM. The viability, T/C [7] was 100%, the viability, T/C [8] was 95.5% and the viability, T/C [9] was 69.5%. It also gave a viability, T/C [10] of 77.3%, a viability, T/C [11] of 22.2% and a viability, T/C [12] of 31.3%. It also gave a viability, T/C [13] of 103%, a viability, T/C [14] of 92.9% and a viability, T/C [15] of 77.6%. The viability, T/C [16] was 68.5%, the viability, T/C [17] was 22.9% and the viability, T/C [18] was 33.2%. The viability, T/C [19] was 103%, the viability, T/C [20] was 93.2% and the viability, T/C [21] was 73.4%. For the same molecule, the viability, T/C [22] was 77.4%, the viability, T/C [23] was 19.2% and the viability, T/C [24] was 25.5%. For the same molecule, the viability, T/C [25] was 111%, the viability, T/C [26] was 83.5% and the viability, T/C [27] was 86.8%. For the same molecule, the viability, T/C [28] was 82.2%, the viability, T/C [29] was 20.1% and the viability, T/C [30] was 27.6%. The viability, T/C [31] was 100%, the viability, T/C [32] was 91.7% and the viability, T/C [33] was 69.5%. It also gave a viability, T/C [34] of 69.6%, a viability, T/C [35] of 19.7% and a viability, T/C [36] of 26.8%. The viability, T/C [37] was 96.2%, the viability, T/C [38] was 90% and the viability, T/C [39] was 73.3%. It also gave a viability, T/C [40] of 69.2%, a viability, T/C [41] of 23.2% and a viability, T/C [42] of 24.2%.
